# From patent US10723716B2, “Alpha-helix mimetics as modulators of Abeta self-assembly” (New York University, priority 2016, dated 2020)
# Entries after “also recorded” stand apart in the source; their conditions may differ.
# Columns and labels:
# [1] = system: IAPP mediated toxicity in rat INS-1 cells; experiment: IAPP mediated toxicity in INS-1 cells; format: cell-based; settings: equimolar ratio
# Aβ42 [2] = target: T1, Aβ42 (Homo sapiens, UniProt P05067); experiment: Transmission electron microscopy (TEM) of Aβ42; format: biochemical; settings: for Aβ42 oligomers seen by TEM after addition to preformed oligomers: 5 μM Aβ42, compound added to preformed oligomers (2 h), equimolar
# T1 construct: Cleavage of APP results in several Aβ isoforms; The predominant species are Aβ42 and Aβ40; purchased Anaspec (Fremont, Calif., USA)
# Protocol: Aβ42 (5 μM) was incubated in phosphate buffer in the absence and presence of the compounds of the invention at various time intervals and stoichiometric ratios. Aliquots of these samples were then applied to glow-discharged carbon-coated 300-mesh copper grids for 2 min and dried. Grids were negatively stained with uranyl acetate (2%, w/v) and dried. Micrographs of grids were examined on a Phillips CM12 Cryoelectron Microscope equipped with Gatan 4k×2.7k CCD camera at 120-kV accelerating voltage.
# Aβ42 [3] = target: T1, Aβ42; experiment: ThT-based kinetic assay of Aβ42 aggregation; format: biochemical; settings: for effect on Aβ42 oligomerization/fibrillation (ThT): equimolar ratio
# Excerpt: The aggregation of Aβ42 was monitored using an established exogenous dye, Thioflavin T (ThT) that intercalates between the amyloid fibers along the perpendicular axis without affecting the kinetics of amyloid formation. (see Wolfe, L. S.; Calabrese, M. F.; Nath, A.; Blaho, D. V.; Miranker, A. D.; Xiong, Y. Proc. Natl. Acad. Sci. U.S.A. 2010, 107, 16863-16868; Levine, H. Protein Sci. 1993, 2, 404-410). A representative ThT-based kinetic assay results are depicted in FIG. 2. The oligomerization reaction of Aβ42 was initiated by diluting a 1 mM stock solution of Aβ42 (in DMSO) to a concentration of 20 μM in phosphate buffer (150 mM KCl, 50 mM NaPi, pH 7.4). Aβ42 fibrillation is a nucleation-dependent polymerization process and is characterized by a sigmoidal curve consisting of a lag phase, an elongation phase, and a plateau phase (FIG. 2a). The kinetic reaction was quantified by extracting t50, which is the time required to reach 50% of the maximum fluorescence that results from fibrillation. Under standard conditions the tso for Aβ42 fibrillation was 2.1±0.2 h (FIG. 2a and FIG. 8).
# Kinetic assays were conducted on a FlexStation 3 Multi-Mode Microplate reader from Molecular Devices (Sunnyvale, Calif., USA). Experiments were conducted in triplicate in a 96-well plate with a final volume of 200 μL per well. Every measurement was an average of 50 readings. The aggregation of an amyloidogenic peptide (Aβ40, Aβ42, or IAPP) was initiated by the addition of the peptide from a stock solution (in DMSO, 0.5-1 mM) to phosphate buffer. The final concentration of each peptide was different based on their aggregation. The stoichiometry of ThT dye for each peptide was 0.5:1 (ThT:peptide). Peptide aggregation was monitored by ThT fluorescence (λex=445 nm and λem=485 nm). The blank sample contained all the components of the peptide samples except the peptide. The sample data were processed by subtracting the fluorescence of the blank sample. The fluorescence intensity data was then normalized by setting the maximum value to 1.
# Kinetic assays in the presence of the compounds of the invention were conducted under the same conditions. The small molecules were added from a stock solution (1 mM or 10 mM in DMSO) to keep the final concentration of DMSO less than 1.0% (v/v). Small molecules were added to the wells with ThT and buffer and mixed gently with a pipette before adding the peptide. To keep the conditions identical, an equal amount of DMSO was added to the wells with the peptide-only control reactions.
# Kinetic profiles were processed using Origin (version 9.1). Kinetic curves were fit using the built-in sigmoidal fit. Each run was fit independently to extract the t50 (time required to reach 50% of the maximum fluorescence intensity). Error bars represent standard deviations from the mean of at least three independent experiments.
# In the delayed addition experiments, where the oligopyridylamides were added at various time points during Aβ amyloid reaction, the conditions were same (as used for the assays where Aβ was preincubated with the oligopyridylamides). The Aβ oligomerization process was initiated by dissolving Aβ into buffer solution and then oligopyridylamides were added to this solution at indicated time points (depend on the assay) at an equimolar ratio.
# T1 sequence (P05067 672-713 limits assumed): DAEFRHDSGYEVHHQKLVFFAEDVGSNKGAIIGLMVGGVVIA
"fibers of Aβ42 seen by TEM (Aβ42 [2]; 5 μM Aβ42, 1:0.1 (Aβ42:ADH-41), 24 h)","oligomers/fibers of Aβ42 seen by TEM (Aβ42 [2]; 5 μM Aβ42, 1:1 or 1:0.5 (Aβ42:ADH-41), even after 2 days)",Aβ42 oligomers seen by TEM after addition to preformed oligomers (Aβ42 [2]),"elongated fibers seen by TEM in seed-catalyzed Aβ42 aggregation (Aβ42 [2]; 20 μM Aβ42 + seeds, equimolar ratio, 24 h)","change in ThT fluorescence intensity in control reaction (Aβ42 [3]; control reaction without Aβ42, matched conditions)",ThT fluorescence intensity characteristic of Aβ42 oligomers (Aβ42 [3]; sub-stoichiometric ratios of 1:0.5 and 1:0.1 (Aβ42:ADH-41)),"fibers of Aβ42 seen by TEM (Aβ42 [2]; 5 μM Aβ42, equimolar ratio, after 12 h)",SMILES,effect on IAPP mediated toxicity ([1]; rat INS-1 cells),effect on Aβ42 oligomerization/fibrillation (ThT) (Aβ42 [3]),"cell viability ([1]; IAPP, INS-1 cells, IAPP alone 65±6%)"
sparse population of fibers,no formation of oligomers/fibers,No formation of Aβ42 oligomers,no elongated fibers were observed,no change,< 10%,–,COC(=O)c1ccc(NC(=O)c2ccc(NC(=O)c3ccc([N+](=O)[O-])c(OCc4ccccc4)n3)c(OCCCN)n2)c(OCCCN)n1 [ADH-41],did not have any effect; also recorded: no effect,completely inhibited; also recorded: effectively blocks; also recorded: decreased significantly,–
–,–,No formation of Aβ42 oligomers,–,–,–,no fibers were recorded,COC(=O)c1ccc(NC(=O)c2ccc(NC(=O)c3ccc(NC(=O)c4ccc([N+](=O)[O-])c(OCC(C)C)n4)c(OCc4ccccc4)n3)c(OCC(=O)O)n2)c(OCC(=O)O)n1 [ADH-31],–,wholly suppressed,98±4%
